Some test systems named below: 786-0 renal; HL-60(TB) leukemia; HOP-92 NSCLC; MCF7 breast; NCI-H522 lung; SF-295 CNS; SK-OV-3 ovarian; SN12C renal; SNB-75 CNS; SW-620 colon.
Common to all, as to assay: NCI anticancer screen, dose series, 48 h

“And” between values parts separate entries of the source, which are not always exact repeats. Equal values may be shown once.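 All cell lines were grown in 96-well plates and treated with compound for 48 hours. Abbreviation: GI50, concentration required for 50% inhibition of growth. The concentration for full growth arrest is given as TGI.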 Where only a bound is given, the exact number is not on record here.

For `NC1=C(Cl)C(=O)c2ccccc2C1=O`, the TGI with 786-0 renal turned out to be 20.2 µM; in the assay on HL-60(TB) leukemia, 45.4 µM; in the assay on HOP-92 NSCLC, 33.7 µM; with MCF7 breast it was 5.25 µM; with NCI-H522 lung, 18.5 µM; with SF-295 CNS it was 18.1 µM. Further, the TGI with SK-OV-3 ovarian was 33.1 µM; with SN12C renal, 15.9 µM; in the assay on SNB-75 CNS, 27.3 µM; with SW-620 colon, 14.6 µM.

For `COC(=O)[C@]12CC=C3O[C@@H]4OC5(CCCCC5)O[C@@H]4[C@H]3C1C(=O)C=CC2=O` (some centres not stated), the TGI in the assay on 786-0 renal stood at 30.8 µM; with HL-60(TB) leukemia, 25.9 µM; in the assay with HOP-92 NSCLC, 33.1 µM; in the assay on MCF7 breast, 35.5 µM; with NCI-H522 lung, 15.4 µM; in the assay with SF-295 CNS it was 42.2 µM. Further, the TGI in the assay with SK-OV-3 ovarian turned out to be 48.7 µM; in the assay on SN12C renal, 35.1 µM; in the assay with SNB-75 CNS, 34.7 µM; with SW-620 colon it was 32.1 µM.

As to `CCN1CCC(CC(=O)Nc2n[nH]c3nc(-c4cccs4)c(Br)cc23)CC1`, the GI50 with 786-0 renal was 10.7 µM; in the assay on HL-60(TB) leukemia, 7.31 µM; in the assay with HOP-92 NSCLC it was greater than 24.1 µM; with MCF7 breast it was 6.29 µM; in the assay on NCI-H522 lung, 6.74 µM; in the assay with SF-295 CNS, 10.7 µM. Moreover, the GI50 in the assay with SK-OV-3 ovarian is 9.24 µM; with SN12C renal, 9.51 µM; in the assay with SNB-75 CNS, 2.34 µM; in the assay with SW-620 colon, 11.4 µM. Also, the TGI with 786-0 renal was greater than 25 µM; in the assay on HL-60(TB) leukemia it was 14.8 µM; in the assay with HOP-92 NSCLC it was greater than 25 µM; with MCF7 breast, 18.5 µM; in the assay with NCI-H522 lung it was greater than 16.8 µM; in the assay on SF-295 CNS, greater than 25 µM. Moreover, the TGI was greater than 25 µM in the assay with SK-OV-3 ovarian, greater than 25 µM with SN12C renal, greater than 20.4 µM in the assay with SNB-75 CNS and greater than 25 µM in the assay on SW-620 colon.

`C=C(C)[C@@H]1CC[C@]2(C(=O)NCCNCCNCCN)CC[C@]3(C)[C@H](CC[C@@H]4[C@@]5(C)CCC(=O)C(C)(C)[C@@H]5CC[C@]43C)[C@@H]12`: the GI50 in the assay on 786-0 renal is 7.8 µM; in the assay on HL-60(TB) leukemia, 8.88 µM; with HOP-92 NSCLC it was 2.93 µM; with MCF7 breast, 7.38 µM; in the assay on NCI-H522 lung, 8.72 µM; in the assay with SF-295 CNS, 9.42 µM. The GI50 with SK-OV-3 ovarian was 10.6 µM; in the assay on SN12C renal it was 7.56 µM; in the assay with SNB-75 CNS, 6.25 µM; with SW-620 colon, 7.91 µM. The TGI in the assay with 786-0 renal stood at 15.8 µM; in the assay on HL-60(TB) leukemia, 19 µM; in the assay on HOP-92 NSCLC, 10.3 µM; in the assay with MCF7 breast, 15.5 µM; with NCI-H522 lung, 18.5 µM; in the assay with SF-295 CNS it was 18.3 µM. The TGI in the assay with SK-OV-3 ovarian worked out at 25.9 µM; with SN12C renal, 15.3 µM; in the assay with SNB-75 CNS, 14.1 µM; in the assay with SW-620 colon it was 16.6 µM.

Consider `COc1ccc2c(c1)C(=O)c1c-2n(CCCN2CCOCC2)c(=O)c2cc([N+](=O)[O-])ccc12`, for which the GI50 in the assay with 786-0 renal was less than 0.01 µM; in the assay on HL-60(TB) leukemia it was less than 0.0193 µM; with HOP-92 NSCLC it was less than 0.01 µM; in the assay on MCF7 breast it was less than 0.01 µM; with NCI-H522 lung, less than 0.01 µM; in the assay with SF-295 CNS, less than 0.01 µM. Also, the GI50 in the assay on SK-OV-3 ovarian, with SN12C renal, in the assay on SNB-75 CNS and with SW-620 colon was less than 0.01 µM each time. For the same compound, the TGI in the assay on HL-60(TB) leukemia is 4.03 µM; in the assay with HOP-92 NSCLC it was less than 0.01 µM; with MCF7 breast it was greater than 100 µM; in the assay on SK-OV-3 ovarian, 14.5 µM; with SN12C renal, 19.4 µM; in the assay with SW-620 colon, 9.2 µM.

For the compound `COc1cc(/C=C2\C(=O)Nc3ccccc32)cc(OC)c1OC`, the GI50 was 23.2 µM in the assay with 786-0 renal; 8.15 µM in the assay on HL-60(TB) leukemia; 20.8 µM with HOP-92 NSCLC; 19.9 µM in the assay with MCF7 breast; 14.1 µM in the assay on NCI-H522 lung; 28.3 µM with SF-295 CNS. In addition, the GI50 is 26.1 µM in the assay with SK-OV-3 ovarian, 20.7 µM with SN12C renal, 15 µM in the assay on SNB-75 CNS and 19.9 µM with SW-620 colon. Moreover, the TGI in the assay on 786-0 renal is greater than 100 µM; in the assay with HL-60(TB) leukemia it was greater than 100 µM; in the assay with HOP-92 NSCLC, 71.7 µM; in the assay on MCF7 breast, greater than 100 µM; in the assay on NCI-H522 lung, 90.4 µM; in the assay with SF-295 CNS, greater than 100 µM. Further, the TGI with SK-OV-3 ovarian was greater than 100 µM; with SN12C renal it was greater than 100 µM; in the assay on SNB-75 CNS it was 58.7 µM; with SW-620 colon, greater than 100 µM.

Regarding `Cc1ccccc1C(C(=O)NC1CCCCC1)N(C(=O)Cn1ccnc1C)c1cccc(F)c1` (configuration not stated), the GI50 was 37.2 µM in the assay with 786-0 renal; greater than 100 µM in the assay with HL-60(TB) leukemia; 20 µM in the assay with HOP-92 NSCLC; greater than 74 µM in the assay on MCF7 breast; greater than 100 µM in the assay on NCI-H522 lung; 28.8 µM in the assay on SF-295 CNS. Further, the GI50 in the assay with SK-OV-3 ovarian was greater than 65.4 µM; in the assay with SN12C renal it was greater than 53.4 µM; in the assay with SNB-75 CNS, 15.6 µM; with SW-620 colon, greater than 100 µM. Also, the TGI was greater than 100 µM in the assay on 786-0 renal; greater than 100 µM with HL-60(TB) leukemia; greater than 100 µM in the assay on HOP-92 NSCLC; greater than 100 µM in the assay on MCF7 breast; greater than 100 µM with NCI-H522 lung; greater than 65.6 µM with SF-295 CNS. In addition, the TGI in the assay on SK-OV-3 ovarian is greater than 100 µM; with SN12C renal, greater than 100 µM; in the assay on SNB-75 CNS it was 59.1 µM; in the assay with SW-620 colon, greater than 100 µM.

`Cc1cc(NC(=O)NC(=O)c2ccccc2NC(=O)CN)ccc1Oc1ncc(Br)cn1`: the GI50 with 786-0 renal is 0.4 µM; in the assay with HL-60(TB) leukemia, 0.111 µM and 0.0249 µM; in the assay with MCF7 breast, 0.174 µM; in the assay with NCI-H522 lung, 0.269 µM and 0.096 µM; in the assay on SF-295 CNS it was less than 0.01 µM; with SN12C renal it was 0.508 µM. The GI50 in the assay with SW-620 colon is 0.506 µM. The TGI is 24.2 µM and 17.8 µM in the assay with 786-0 renal; 0.865 µM and 0.175 µM in the assay on HL-60(TB) leukemia; 32.7 µM in the assay with HOP-92 NSCLC; 23.3 µM and > 100 µM in the assay with MCF7 breast; 2.24 µM and 0.472 µM in the assay with NCI-H522 lung; 35.8 µM and 13.9 µM in the assay on SK-OV-3 ovarian. Further, the TGI was 38 µM and 49.1 µM in the assay with SN12C renal; 3.28 µM in the assay on SNB-75 CNS; 23.4 µM and > 100 µM in the assay with SW-620 colon.

For the origin of these results see PubChem BioAssay (NCI).
